Data set [1] is described as follows: xn = mol fraction of the nth substance listed. The following applies: 100 kPa, Liquid; for electrical conductivity: Direct current cell with electrodes; for viscosity: Falling or rolling sphere viscometry, x2 = 0.
A short description of data set [2]: refractive index (Na D-line) (dimensionless); xn = mol fraction of the nth substance listed. The following applies: 298.15 K, 100 kPa, Liquid, Standard Abbe refractometry.
Data set [3] can be described thus: refractive index (Na D-line) (dimensionless). The following applies: 298.15 K; 100 kPa; Liquid; Standard Abbe refractometry.
For data set [4] the following is noted: 100 kPa, Liquid; for viscosity: Falling or rolling sphere viscometry.

± gives the expanded uncertainty stated by the source.

On to `CN(C)C(=[NH2+])N(C)C.c1c[n-]cn1` [1,1,3,3-tetramethylguanidinium imidazol-1-ide] + CCO, for which the electrical conductivity in data set [1] (298.15 K, x1 = 0.01) is 0.0131 ± 0.001 S/m; in data set [1] (298.15 K, x1 = 0.0299), 0.0337 ± 0.001 S/m; in data set [1] (298.15 K, x1 = 0.0897), 0.092 ± 0.0013 S/m; in data set [1] (298.15 K, x1 = 0.1197), 0.12 ± 0.0014 S/m; in data set [1] (298.15 K, x1 = 0.1499) it was 0.139 ± 0.0015 S/m; in data set [1] (298.15 K, x1 = 0.1797) it was 0.16 ± 0.0017 S/m. Further, the electrical conductivity in data set [1] (298.15 K, x1 = 0.2001) stood at 0.166 ± 0.0017 S/m; in data set [1] (298.15 K, x1 = 0.2195), 0.173 ± 0.0018 S/m; in data set [1] (298.15 K, x1 = 0.2398), 0.179 ± 0.0018 S/m; in data set [1] (298.15 K, x1 = 0.2602), 0.185 ± 0.0019 S/m; in data set [1] (298.15 K, x1 = 0.2996) it was 0.199 ± 0.002 S/m; in data set [1] (298.15 K, x1 = 0.3995) it was 0.213 ± 0.002 S/m. Further, the electrical conductivity in data set [1] (298.15 K, x1 = 0.5) stood at 0.221 ± 0.002 S/m; in data set [1] (298.15 K, x1 = 0.6467), 0.227 ± 0.002 S/m; in data set [1] (298.15 K, x1 = 0.801), 0.229 ± 0.002 S/m; in data set [1] (298.15 K, x1 = 0.8996), 0.223 ± 0.002 S/m; in data set [1] (298.15 K, x1 = 1) it was 0.218 ± 0.002 S/m. For the same compound, the refractive index in data set [2] (x1 = 0.0483) turned out to be 1.3799 ± 0.0006; in data set [2] (x1 = 0.0999), 1.3983 ± 0.0006; in data set [2] (x1 = 0.2003), 1.4242 ± 0.0006; in data set [2] (x1 = 0.3001), 1.4405 ± 0.0005; in data set [2] (x1 = 0.3999), 1.4547 ± 0.0005; in data set [2] (x1 = 0.5) it was 1.4652 ± 0.0006. Besides, the refractive index in data set [2] (x1 = 0.643) amounted to 1.4762 ± 0.0006; in data set [2] (x1 = 0.7966) it was 1.4854 ± 0.0006; in data set [2] (x1 = 0.8987) it was 1.4903 ± 0.0006; in data set [2] (x1 = 1), 1.4943 ± 0.0006.
On to `CN(C)C(=[NH2+])N(C)C.c1c[n-]cn1` [1,1,3,3-tetramethylguanidinium imidazol-1-ide] + CCCO, for which the refractive index in data set [2] (x1 = 0.0499) was found to be 1.3969 ± 0.0006; in data set [2] (x1 = 0.0999) it was 1.4086 ± 0.0005; in data set [2] (x1 = 0.2002) it was 1.428 ± 0.0005; in data set [2] (x1 = 0.2996) it was 1.4423 ± 0.0005; in data set [2] (x1 = 0.4002), 1.4545 ± 0.0005; in data set [2] (x1 = 0.4988), 1.4642 ± 0.0005. The refractive index came out at 1.4742 ± 0.0006 in data set [2] (x1 = 0.6264), 1.4848 ± 0.0006 in data set [2] (x1 = 0.8001), 1.4895 ± 0.0006 in data set [2] (x1 = 0.9006) and 1.4943 ± 0.0006 in data set [2] (x1 = 1).
As for `O` [water] + CN(C)C(=[NH2+])N(C)C.c1c[n-]cn1, the viscosity in data set [1] (293.15 K) is on record as 0.997 ± 0.041 mPa·s; in data set [1] (298.15 K), 0.886 ± 0.036 mPa·s; in data set [1] (303.15 K), 0.799 ± 0.033 mPa·s; in data set [1] (308.15 K) it was 0.726 ± 0.03 mPa·s; in data set [1] (313.15 K), 0.665 ± 0.027 mPa·s. The refractive index in data set [2] (x2 = 0) was 1.3331 ± 0.0005.
As for `CN(C)C(=[NH2+])N(C)C.c1c[n-]cn1` [1,1,3,3-tetramethylguanidinium imidazol-1-ide] + CO, the refractive index is given as 1.3631 ± 0.0008 in data set [2] (x1 = 0.0501); 1.389 ± 0.0006 in data set [2] (x1 = 0.1005); 1.4222 ± 0.0006 in data set [2] (x1 = 0.1957); 1.4423 ± 0.0005 in data set [2] (x1 = 0.2953); 1.4577 ± 0.0005 in data set [2] (x1 = 0.393); 1.4688 ± 0.0005 in data set [2] (x1 = 0.5005). In addition, the refractive index turned out to be 1.4791 ± 0.0006 in data set [2] (x1 = 0.6431), 1.4865 ± 0.0006 in data set [2] (x1 = 0.7815), 1.4915 ± 0.0006 in data set [2] (x1 = 0.8994) and 1.4943 ± 0.0006 in data set [2] (x1 = 1).
For `CCCO` [propan-1-ol], the refractive index in data set [3] is 1.3836 ± 0.0005.
Take `CO` [methanol]: in data set [3], the refractive index is on record as 1.3267 ± 0.0005.
In the case of `CN(C)C(=[NH2+])N(C)C.c1c[n-]cn1` [1,1,3,3-tetramethylguanidinium imidazol-1-ide] + CCCCO, the refractive index in data set [2] (x1 = 0.0499) is listed as 1.4074 ± 0.0005; in data set [2] (x1 = 0.1004), 1.4159 ± 0.0005; in data set [2] (x1 = 0.1999), 1.4316 ± 0.0005; in data set [2] (x1 = 0.2997), 1.4443 ± 0.0005; in data set [2] (x1 = 0.3985), 1.4545 ± 0.0005; in data set [2] (x1 = 0.4997), 1.4641 ± 0.0005. For the same compound, the refractive index in data set [2] (x1 = 0.6499) is recorded as 1.4748 ± 0.0006; in data set [2] (x1 = 0.8002) it was 1.4839 ± 0.0006; in data set [2] (x1 = 0.9004) it was 1.4888 ± 0.0006; in data set [2] (x1 = 1) it was 1.4943 ± 0.0006.
In the case of `CCCCO` [butan-1-ol], the refractive index in data set [3] is recorded as 1.3975 ± 0.0005.
`CCO` [ethanol] + CN(C)C(=[NH2+])N(C)C.c1c[n-]cn1: the refractive index in data set [2] (x2 = 0) is given as 1.3598 ± 0.0005.
For `CCCCO` [butan-1-ol] + CN(C)C(=[NH2+])N(C)C.c1c[n-]cn1, the refractive index in data set [2] (x2 = 0) was 1.3975 ± 0.0005.
In the case of `CCO` [ethanol], the refractive index in data set [3] came to 1.3598 ± 0.0005.
For `O` [water], the viscosity in data set [4] (293.15 K) is on record as 0.997 ± 0.041 mPa·s; in data set [4] (298.15 K), 0.886 ± 0.036 mPa·s; in data set [4] (303.15 K), 0.799 ± 0.033 mPa·s; in data set [4] (308.15 K), 0.726 ± 0.03 mPa·s; in data set [4] (313.15 K) it was 0.665 ± 0.027 mPa·s. Moreover, the refractive index in data set [3] came out at 1.3331 ± 0.0005.
Regarding `CO` [methanol] + CN(C)C(=[NH2+])N(C)C.c1c[n-]cn1, the refractive index in data set [2] (x2 = 0) was 1.3267 ± 0.0005.
As to `CN(C)C(=[NH2+])N(C)C.c1c[n-]cn1` [1,1,3,3-tetramethylguanidinium imidazol-1-ide], in data set [4] (298.15 K, Direct current cell with electrodes), the electrical conductivity was 0.218 ± 0.002 S/m. Also, the refractive index in data set [3] was 1.4943 ± 0.0006.
Regarding `CCCO` [propan-1-ol] + CN(C)C(=[NH2+])N(C)C.c1c[n-]cn1, the refractive index in data set [2] (x2 = 0) was 1.3836 ± 0.0005.
